# How the values were obtained:
# CRBN = CRBN (Homo sapiens, UniProt Q96SW2); experiment: Surface plasmon resonance with immobilized His-tagged cereblon; details: SPR; average of at least 2 experiments; N.B - no binding observed
# Description: With unprecedented access to novel analogues of ImiDs, the structure-activity relationships with respect to Cereblon binding and the degradation of Aiolos (IKZF3) and CK1αwe were explored. To assess binding of ImiD analogues to Cereblon directly, an SPR assay with His-tagged Cereblon immobilized was employed. Dose-response curves were measured for each analogue and Kd values calculated.
# Surface Plasmon Resonance
# The surface plasmon resonance (SPR) experiments were conducted on a S200 Biacore (GE Healthcare). His-tagged cereblon protein was immobilized on a carboxymethylated dextran surface with nitriloacetic acid (NTA), taking advantage of NTA/Ni2+ chelation. The prepared surface equilibrated overnight in running buffer (10 mM HEPES buffer @ pH 7.4, 150 mM NaCl, 0.4 mg/mL BSA, 0.005% P20, 2% DMSO).
# All compounds were prepared in 100% DMSO stock plates with a top concentration of 5 mM in a 3× serial dilution. Compounds were transferred from the stock plate to the assay plate and diluted into running buffer containing no DMSO.
# Data analysis was performed in S200 Bia-evaluation software (GE Healthcare). Blanks were subtracted and data was corrected for DMSO using a standard DMSO curve.
# c-Myc = experiment: Western blot analysis of c-Myc in BL cell lines; assay type: cell-based
# Description: (§1) Cultured cells were collected in lysis buffer containing 40 mM HEPES (pH 7.4), 140 mM NaCl, 2.5 mM EDTA, 1% NP-40, 0.1% SDS and protease inhibitor cocktail. After 10 minutes of centrifugation (14000 rpm), supernatant was collected for protein concentration determination by BCA method and subjected for immunoblotting by standard protocol. Western blot results were visualized using Bio-Rad Clarity ECL Western Blotting Substrate on Bio-Rad ChemiDoc™ MP imaging system.
# A separate set of cells were treated in the same manner, except that DMSO was used in place of the inhibitor. Following treatment, cell lysates were collected and analyzed by immunoblot for c-Myc and Actin.
# Cells were re-seeded and incubated without inhibitor for 0 hr, 0.5 hr, 1.0 hr, 2.0 hr, 3.0 hr, 4.0 hr, and 6.0 hr. Cell lysates were then collected at the various time points and analyzed by immunoblot for c-Myc and Actin. In a parallel control experiment, NAMALWA cells were treated in the same manner, except DMSO was used in place of JQ1.
# After treatment, the cells were either lysed (to evaluate the suppression of c-Myc by the inhibitors) or washed to remove the inhibitor, re-seeded, and incubated without inhibitor for 4.0 hours (to evaluate the reversibility of c-Myc suppression). Cell lysates were collected and analyzed by immunoblot for c-Myc and Actin.
# Following treatment, cell lysates were collected and analyzed by immunoblot for BRD4, c-Myc and Actin.
# Cells were re-seeded in fresh medium and incubated without any compound for 0 hr, 2.0 hr, 4.0 hr, 6.0 hr, and 24.0 hr. In a parallel control experiment, cells were treated in the same manner, except DMSO was used in place of inhibitor. Lysates were collected and analyzed by immunoblot for BRD4, c-Myc, and Actin.
# SLC19A1 = experiment: RT-QPCR of SLC19A1 gene expression in NAMALWA cells; assay type: cell-based; details: A825 0.1 μM 24 h, washout, 24 hours post-treatment
# Description: RNA extraction was performed with Aurum™ Total RNA Mini Kit (#732-6820) from Bio-Rad. First-strand cDNA from total RNA was synthesized with High-Capacity cDNA Reverse Transcription Kit (#4368813) from Life Technologies according to manufacturer's instruction. Quantitative PCR was performed using Bio-rad SsoAdvanced™ Universal SYBR® Green Supermix (#172-5271). The following primers were used: […]
# Cells were re-seeded in fresh medium and incubated without any inhibitor for 0 hr, 6.0 hr, and 24.0 hr. In a parallel control experiment, cells were treated in the same manner, except DMSO was used in place of inhibitor. At each time point, RNA was extracted from the lysates, reverse-transcribed into cDNA, and quantified by QPCR with SLC19A1 specific primers. GAPDH was also quantified by QPCR as an internal control.
# [1] = tested on: BL cell lines (NAMALWA, Ramos, CA-46, Daudi); experiment: Proliferation assay (CellTiter-Glo) in BL cell lines; assay type: cell-based
# Description: To assess the effect of the inhibitors on proliferation, cells (50,000/100 μl) were seeded in 96-well tissue culture plates followed by addition of compound at the indicated concentration. After 72 hours, 100 μL per well of reconstituted CellTiter-Glo (CTG) reagent (#G7572 from Promega) was added and read on Cytation 3 imaging reader from BioTek. Relative cell growth was determined by comparing assay readings of treated cells with control DMSO treated cells.
# Specifically, NAMALWA, Ramos, CA-46, and Daudi cell lines were seeded at 50,000 cells/100 μl in 96-well plates. […] Following treatment, the relative proliferation of the samples was determined by CTG assay 72 hours following treatment.
# Cells were re-seeded in fresh medium and incubated without any compound for 0 hr, 24.0 hr, and 48.0 hr. In a parallel control experiment, cells were treated in the same manner, except DMSO was used in place of inhibitor. Following treatment, the relative proliferation of the samples was determined by CTG assay.
# In a parallel control experiment, cells were treated in the same manner, except DMSO was used in place of inhibitor. Following treatment, the relative proliferation of the samples was determined by CTG assay.
# In a parallel experiment, cells were treated in the same manner, except DMSO was used in place of pomalidomide.
# caspase 3/7 = experiment: Caspase 3/7-Glow assay in BL cell lines; assay type: cell-based; details: 24 hours, A825 0.1 μM, JQ1 1.0 μM, OTX015 1.0 μM
# PARP = PARP cleavage immunoblot in BL cells; assay type: cell-based; details: 48 hours; A825 0.1 uM, JQ1 and OTX15 up to 10.0 μM; Ramos cells
# Description: as §1
# Lysates were collected and analyzed by immunoblot for PARP cleavage with actin as loading control.
# Sequence of CRBN (Q96SW2 whole entry): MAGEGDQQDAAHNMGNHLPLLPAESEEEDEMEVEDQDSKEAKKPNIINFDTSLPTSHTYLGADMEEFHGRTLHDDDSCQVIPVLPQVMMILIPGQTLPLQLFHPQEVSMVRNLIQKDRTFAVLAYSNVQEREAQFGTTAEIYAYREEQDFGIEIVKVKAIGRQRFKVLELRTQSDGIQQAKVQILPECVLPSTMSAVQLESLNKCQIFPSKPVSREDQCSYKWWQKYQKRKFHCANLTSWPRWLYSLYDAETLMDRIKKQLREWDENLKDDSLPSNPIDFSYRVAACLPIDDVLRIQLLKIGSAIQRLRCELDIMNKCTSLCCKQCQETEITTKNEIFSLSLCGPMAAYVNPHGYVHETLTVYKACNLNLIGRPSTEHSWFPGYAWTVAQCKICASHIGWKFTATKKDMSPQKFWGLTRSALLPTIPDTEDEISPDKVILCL
compound,measurement,setting,value
CC(C)(C)c1ccc2c(c1)C(=O)N(C1CCC(=O)NC1=O)C2=O (centres unmarked) [Compound 11],Kd,CRBN,0.221 ± 0.052 µM
O=C1CCC(N2C(=O)c3cccc4cccc(c34)C2=O)C(=O)N1 (centres unmarked) [Compound 12],Kd,CRBN,0.111 ± 0.006 µM
O=C1CCC(N2C(=O)c3ccc([N+](=O)[O-])cc3C2=O)C(=O)N1 (centres unmarked) [Compound 16],Kd,CRBN,> 11 µM
Cc1sc2c(c1C)C(c1ccc(Cl)cc1)=N[C@@H](CC(=O)Nc1ccc(OCCOCCOCCOCCNc3cccc4c3C(=O)N(C3CCC(=O)NC3=O)C4=O)cc1)c1nnc(C)n1-2 (some centres unmarked) [Compound A825],c-Myc protein level after compound removal,"c-Myc; A825 0.1 μM 24 h, washout, 24 hours post-treatment, NAMALWA cells",well below the control sample
same,c-Myc downregulation (immunoblot),"c-Myc; A825 100-1000 nM overnight, NAMALWA and Ramos cells",much more pronounced downregulation of c-Myc compared to JQ1 and OTX-15
same,SLC19A1 gene expression after compound removal,SLC19A1,greatly reduced compared to the control sample
same,suppression of proliferation,"[1]; 72 hours, all BL cell lines tested",more pronounced suppression of proliferation compared to JQ1 or OTX15
same,anti-proliferation effect,"[1]; A825 10 nM with 10.0 μM pomalidomide, 72 hours, all cell lines tested",prevented the anti-proliferation effect
same,duration of proliferation suppression post-treatment,"[1]; A825 0.1 μM 24 h, washout, NAMALWA cells",more than 48 hours
same,caspase 3/7 activity,caspase 3/7,statistically significant increase in caspase activity
same,apoptosis by PARP cleavage,PARP,prominent PARP cleavage

# From US11834460B2, “Imide-based modulators of proteolysis and associated methods of use” (YALE UNIVERSITY, priority 2018, dated 2023)
